In the supplement of paper PMC10307832:

Key:
Assay in all cases: relative viability (nuclei count vs DMSO), 5 days (fraction); higher = more cells survive
[1] = compound: CC1=NC=CC(=C1)C2=CC=C(C=C2)CC(=O)NC3=CC=C(C=C3)C4=CN=CC=C4 [Wnt-C59]
Outline: (§1)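 Hoechst staining, done together with fixation and permeabilisation, marked nuclei for 4× imaging and MetaXpress counting. This followed 5 days without medium change after lung cancer cell lines, kept overnight at 37 °C in 1536-well plates, were pinned with five library-drug doses (not always all listed) spaced by √10 on vehicle-anchored plates. Viability is the ratio of treated-well to vehicle-well nuclei, expressed as a median across plates. Plates passed only at control CV below 25% with at least one doubling.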

[2] = compound: CS(=O)(=O)CCNCc1ccc(-c2ccc3ncnc(Nc4ccc(OCc5cccc(F)c5)c(Cl)c4)c3c2)o1 [Lapatinib]
Outline: as §1

[3] = compound: CS(=O)(=O)CCNCc1ccc(-c2ccc3ncnc(Nc4ccc(OCc5cccc(F)c5)c(Cl)c4)c3c2)o1 [Lapatinib] + Cc1cc(Nc2cc(N3CCN(C)CC3)nc(Sc3ccc(NC(=O)C4CC4)cc3)n2)n[nH]1 [Tozasertib] (partner 0.1 µM)
Outline: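 One day after seeding in 1536-well plates, lung cancer cell lines were dosed by pin tool. Dosing was either single-drug or a fixed anchor-drug dose plus five library-drug doses (not always all listed) in √10 steps. After 5 days, nuclei were stained in one fix-and-stain step and counted on 4× images, and relative viability is the nuclei count of treated wells over that of vehicle wells, given as the median of duplicate plates.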

UMC-11
relative viability ([1]; 0.001 µM): 0.909
relative viability ([1]; 0.01 µM): 1.04
relative viability ([1]; 0.03162 µM): 1.08
relative viability ([1]; 0.1 µM): 1.03
relative viability ([2]; 0.02 µM): 0.906
relative viability ([2]; 0.06325 µM): 0.935
relative viability ([2]; 0.2 µM): 1.02
relative viability ([2]; 0.6325 µM): 0.998
relative viability ([2]; 2 µM): 0.942
relative viability ([2]; 2 µM, anchor plate): 1.02
relative viability ([3]; first compound 0.06325 µM): 0.211
relative viability ([3]; first compound 0.2 µM): 0.209
relative viability ([3]; first compound 0.6325 µM): 0.184
relative viability ([3]; first compound 2 µM): 0.211
